The nature of the series: Human HepG2 cell viability assay in 384 well format. Format: toxicity, cell-based. On the set-up: dose 125 nL, time 70.5 hour; concentration not given beside the values. Conditions: HepG2 cells, read-out: Inhibition.
Consider `Cc1ccc(-c2nc(CN3CCCCC3Cn3cncn3)no2)cc1` (centres undefined), for which the cytotoxicity at 70.5 h is -7.36%. Consider `CC(C)NC(=O)N1CCC2(CC1)NC(=O)CC2c1ccncc1` (centres undefined), for which the cytotoxicity at 70.5 h was -1.45%. As for `Cc1noc(C2CN(CC(=O)NCC3CCCO3)C2)n1` (centres undefined), the cytotoxicity at 70.5 h was -3.62%. As for `c1cncc(COC[C@H]2CC[C@H]3[C@H](CCN3Cc3nccs3)O2)c1`, the cytotoxicity at 70.5 h was -0.559%. Turning to `Cc1ccc(C)c(-n2cc(CN3CC[C@@H](O)C3)c(-c3ccccc3)n2)c1`, the cytotoxicity at 70.5 h was -0.782%. For `O=C(c1ccc2c(c1)OCO2)N1CCC[C@]2(C[C@H](OCC3CC3)CO2)C1`, the cytotoxicity at 70.5 h was -9.71%. With `Cc1noc(C)c1CN1CCOCC12CCN(c1cnccn1)CC2`, the cytotoxicity at 70.5 h is -6.5%.

As to `CN(Cc1ccccc1CN1CCCC1)C(=O)c1c[nH]c(=O)[nH]1`, the cytotoxicity at 70.5 h was -10.8%. For `Cn1cc(C(O)CNC(=O)Nc2cc(F)ccc2-n2cccn2)cn1` (centres undefined), the cytotoxicity at 70.5 h came out at 5.74%. As to `COc1nccnc1N1CCN(Cc2cccc(C)c2)C(=O)C1`, the cytotoxicity at 70.5 h is 7%. Regarding `Cc1nc(S(=O)(=O)N2CCSCC2)cn1C`, the cytotoxicity at 70.5 h was -2.15%. For the molecule `Cc1nccc(CNC(=O)Nc2cc(C(F)(F)F)c[nH]c2=O)n1`, the cytotoxicity at 70.5 h is -5.34%.

On to `OCCC1CN(c2ncnc3[nH]cnc23)CCN1Cc1ccccc1` (centres undefined), for which the cytotoxicity at 70.5 h is -3.48%. For the molecule `O=C1CC[C@H](C(=O)N(Cc2cccc(Br)c2)C2CC2)N1`, the cytotoxicity at 70.5 h came out at 2.31%.

For the molecule `Cc1ccc(C(=O)NC2CC2)c(-n2cnnn2)c1C`, the cytotoxicity at 70.5 h was -17.7%. Next, `C[C@@H]1CN(c2ccc(Cl)cn2)C[C@@]1(O)C1CC1`: -3.66%. With `CC(=O)N1N=C(c2ccco2)OC1C(=O)NCCc1ccc(F)cc1` (centres undefined), the cytotoxicity at 70.5 h was 0.102%. In the case of `Cc1ccc2c(n1)N(CCn1cccn1)CCN(C1CCOCC1)C2`, the cytotoxicity at 70.5 h is -5.52%. The value for `Cc1cncc(C2CCCN(C(=O)c3cccn3C)C2)n1` (centres undefined) was -5.17%. In the case of `CCOc1ccc(C2C3=C(O)OCC3=Nc3nc(SC)nc(N)c32)cc1` (centres undefined), the cytotoxicity at 70.5 h came to 9.83%.

For the molecule `Cc1nc(CN(C)C2CCN(CCCOc3ccccc3C)C2)no1` (centres undefined), the cytotoxicity at 70.5 h was found to be 0.379%. As for `Cc1cnc(C(=O)N2CCN(C(=O)CC(C)C)[C@@H]3CS(=O)(=O)C[C@@H]32)cn1`, the cytotoxicity at 70.5 h was -7.52%. In the case of `CCN1C(=O)CCCC12CCCN(C(=O)c1sccc1C)C2` (centres undefined), the cytotoxicity at 70.5 h is -9.33%. The value for `CCc1ccc(C(=O)N(c2cccnc2)C(C)C)cc1S(C)(=O)=O` was -8%; that for `COC(=O)c1ccc(NC(=O)CNCc2ccco2)cc1` was -5.33%. Turning to `Cc1c2ncn(CC(=O)N(C)C)c(=O)c2nn1C`, the cytotoxicity at 70.5 h is -8.37%. Regarding `Cc1nc(C2CCCN2CC(=O)N(C)Cc2ccsc2)no1` (centres undefined), the cytotoxicity at 70.5 h was 12.6%. As to `O=C1CC2(CCCC2)C(=O)N1CC(O)COCc1ccccc1F` (centres undefined), the cytotoxicity at 70.5 h came to 12.5%. Consider `O=C(NCCOc1ccc2c(c1)OCO2)N1CCC1`, for which the cytotoxicity at 70.5 h is -12.5%.

On to `Cn1ccnc1CN1C[C@@H]2OCCN(c3ncccn3)[C@@H]2C1`, for which the cytotoxicity at 70.5 h was -16.1%. The value for `Cc1noc(C)c1CC(=O)N1CCN(Cc2cscn2)CC1` was -1.94%; that for `CC(C)n1ccc(-c2cc(C(=O)NC3CC3)c3ccccn23)n1` was 21.3%; that for `CN(C)c1ccc2c(c1)CN(C(=O)c1c[nH]cn1)C2c1cnco1` (centres undefined) was 29.3%. For the molecule `CS(=O)(=O)N1CC[C@H]2O[C@H](C(=O)NCCc3ccccn3)CC[C@H]21`, the cytotoxicity at 70.5 h is -9.62%. As to `Cc1csc(CNC(=O)N2CCN(Cc3cc(C)on3)CC2)n1`, the cytotoxicity at 70.5 h is -3.55%.

With `O=C(NCc1ccccn1)c1cncc(C2CCCN2)n1` (centres undefined), the cytotoxicity at 70.5 h is 22.2%. With `COCc1n[nH]c2c1CN(C(=O)c1ccncc1)C2`, the cytotoxicity at 70.5 h is -10.2%. On to `COc1cc2c(nn1)CCN(Cc1noc(CC(C)C)n1)C2`, for which the cytotoxicity at 70.5 h was -4.19%. Next, `O=C(OCC1CCCN(C(=O)c2ccccc2)C1)c1cscn1` (centres undefined): -88.6%; `COc1ccccc1N1CCN(Cc2nccc(OC)c2OC)CC1=O`: 7.74%.

Consider `CC(C)NC(=O)Nc1ccccc1CN1CCOCC1`, for which the cytotoxicity at 70.5 h was -5.87%. With `Cc1cc(C(=O)N2CCN(c3ncc4c(n3)CCOC4)CC2)sc1C`, the cytotoxicity at 70.5 h came to 2.24%.

On to `CCS(=O)(=O)N1CCCC(c2nc3ccccc3n2C(C)C)C1` (centres undefined), for which the cytotoxicity at 70.5 h was -3.94%. In the case of `Cc1noc2nc3c(c(C(=O)/N=c4\[nH]nc(C(C)C)s4)c12)CCC3`, the cytotoxicity at 70.5 h is -12.5%. For `COCC1CN(Cc2c(C)noc2C)Cc2ccnn2C1` (centres undefined), the cytotoxicity at 70.5 h is -9.74%.

Take `NC(=O)Cn1ccc(NC(=O)C2(c3cccc(F)c3)CCC2)n1`: the cytotoxicity at 70.5 h came to 19.5%. In the case of `Cc1cc(CN(C)C2CCCN(Cc3noc(C)n3)C2)on1` (centres undefined), the cytotoxicity at 70.5 h was determined as 17.4%.

For `Cc1nnc(NC(=O)NCc2ccc(N3CCNC(=O)C3)cc2)s1`, the cytotoxicity at 70.5 h was -3.76%.

Consider `CCN(CC)CC[C@H]1CN(C(=O)NC2CCCCC2)CC[C@H]1CC(=O)O`, for which the cytotoxicity at 70.5 h was -1.74%. As for `COc1ccc(C)cc1C(C)NCc1cccn1C` (centres undefined), the cytotoxicity at 70.5 h was -0.611%. For the molecule `CC(=O)Nc1ncc(S(=O)(=O)N2CCC(C)CC2)s1`, the cytotoxicity at 70.5 h is -8.58%. Take `CC(=O)N1CCC(n2nccc2-c2cnc(N)nc2)CC1`: the cytotoxicity at 70.5 h is -6.3%. In the case of `CCN(Cc1ccoc1)C(=O)NC1CCN(C(=O)OC(C)(C)C)C1` (centres undefined), the cytotoxicity at 70.5 h is -2.35%. In the case of `CCSc1ccc(NC(=O)NC(C)c2c(C)nn(C)c2C)cn1` (centres undefined), the cytotoxicity at 70.5 h is -13.5%. Take `CC1CN(Cc2cccc(CNC3CCCC3)c2)CCO1` (centres undefined): the cytotoxicity at 70.5 h was found to be 12.8%. As to `Cc1cc(C)n(-c2cccc(NC(=O)N3CCC[C@@H]3CO)c2)n1`, the cytotoxicity at 70.5 h is -16%. Next, `CCN(CC)CCCNCc1cc2cc(C)cc(C)c2[nH]c1=O`: 3.4%. Regarding `Cc1cccc(CN2C[C@@H](F)[C@@H](OCc3nc4ccccc4[nH]3)C2)n1`, the cytotoxicity at 70.5 h is -1.57%. As to `Cc1cccc2c1nc(CCO)n2-c1ccc(C(=O)N2CCCC2)o1`, the cytotoxicity at 70.5 h stood at 12.9%. The value for `Cc1noc(C)c1C(=O)NCc1ccc(N2CCC(C)CC2)nc1` was 1.58%. Regarding `CCC(C)N(Cc1sccc1C)C(=O)c1cc(N)ccn1` (centres undefined), the cytotoxicity at 70.5 h was -11.9%.

For the molecule `CCc1cn[nH]c1C1CCN(c2cc(C)c3cc(OC)ccc3n2)CC1`, the cytotoxicity at 70.5 h amounted to 1.76%. Regarding `O=C(COc1cccc(Cl)c1)N1CCOCC1c1ncon1` (centres undefined), the cytotoxicity at 70.5 h stood at 13.9%. As to `COCc1cccc(CNCc2c(C(C)C)nn(C)c2N(C)C)c1`, the cytotoxicity at 70.5 h is -7.7%.

`CC(C)c1noc(CN2CCOCC2C)n1` (centres undefined): the cytotoxicity at 70.5 h is -4.78%. Consider `Cc1cc(NC(=O)CN2CCn3c(nnc3C3CC3)C2)no1`, for which the cytotoxicity at 70.5 h is -5.22%. With `Cc1cnn(CCCOc2ccc3c(c2)OCO3)c1`, the cytotoxicity at 70.5 h is -0.603%.

Consider `CN1CCO[C@@H]2CN(C(=O)COc3cccc(Cl)c3)C[C@@H]2C1`, for which the cytotoxicity at 70.5 h turned out to be 4.28%. With `Cc1nnsc1-c1nnc2sc(C(C)C)nn12`, the cytotoxicity at 70.5 h is 3.22%.

On to `O=S(=O)(NCCn1ccc(-c2ccccn2)n1)C1CC1`, for which the cytotoxicity at 70.5 h was -0.0974%. With `Cc1ccc(C(=O)NCCNC(=O)c2cncnc2C)cc1F`, the cytotoxicity at 70.5 h was -11.3%.

Take `Cn1cc(C[C@H]2[C@H](N3CCOCC3)CCN2C(=O)c2ccoc2)cn1`: the cytotoxicity at 70.5 h was -16.3%.

As for `COc1cnc(C2(O)CCN(C(=O)c3ccccn3)CC2)c(OC)n1`, the cytotoxicity at 70.5 h is -13.1%. Turning to `COCC(NC(=O)NCc1ccc(C)c(F)c1)c1ccco1` (centres undefined), the cytotoxicity at 70.5 h stood at 1.44%. The value for `Cc1noc(CN(Cc2ccco2)Cc2cccc3c2OCO3)n1` was -1.63%; that for `CN1CCN2C(=O)N(c3ccccc3)C[C@H]2C1` was -0.222%. The value for `COCCOCCC(=O)Nc1c(-c2ccc(F)cc2)ncn1C` was 17%; that for `CN(C)S(=O)(=O)N1CCC[C@]2(C[C@@H](Oc3ncccc3F)CO2)C1` was -11.4%; that for `O=C(NC1CCCC1)c1cc(Cn2cnc3ccccc32)on1` was -1.14%. The value for `O=C(NCC1CCOCC1)[C@@H]1C[C@@H]2CCN(Cc3ccco3)C[C@H]2O1` was -5.42%; that for `O=C(NC1CCS(=O)(=O)C1)c1ccc(-c2ccc(F)cc2)s1` (centres undefined) was -0.198%; that for `COC1CCN(CCNC(=O)NC(C)c2ccc(F)c(F)c2)CC1` (centres undefined) was 23.5%. In the case of `Cc1nc(C2CCN(S(=O)(=O)c3ccc(Cl)cc3)CC2)n[nH]1`, the cytotoxicity at 70.5 h was found to be 1.07%. For the molecule `Cc1cccn2c(CNC(C)CO)cnc12` (centres undefined), the cytotoxicity at 70.5 h worked out at 40.8%. Next, `CCN1CCN(C)C2(CCN(C(=O)CC(F)(F)F)CC2)C1=O`: 0.29%; `CN(Cc1ccc(F)cc1)CC1(O)CCN(C(=O)c2ccccc2)C1` (centres undefined): -2.54%; `O=S(=O)(Cc1ccon1)N1CCN(c2ccncc2Cl)CC1`: -11.7%. As for `O=C(O)[C@@H]1OCC(=O)N(Cc2cccc(Cl)c2)[C@@H]1c1ccccc1`, the cytotoxicity at 70.5 h was 5.58%. On to `Cc1cscc1-c1nc(C2CCOC2)no1` (centres undefined), for which the cytotoxicity at 70.5 h was -5.31%. As for `CN(C)CC1(O)CCN(S(=O)(=O)c2cccc(F)c2)C1` (centres undefined), the cytotoxicity at 70.5 h was -4.11%. For the molecule `CCC1C=CCN1C(=O)c1cc(COc2ccccc2OC)[nH]n1` (centres undefined), the cytotoxicity at 70.5 h is -11.7%. Next, `c1ccc2c(c1)OCCC2NCc1ccc(N2CCOCC2)cc1` (centres undefined): -2.79%; `CN1C[C@H]2CC[C@@H]1CN(C(=O)COCc1nc3cc(F)ccc3[nH]1)C2`: 27.3%; `CCc1nccn1C1CCCN(C(=O)c2ccc(-n3ccnc3)cc2)C1` (centres undefined): -10.5%. Next, `Cc1ncccc1NS(=O)(=O)Cc1cccc(F)c1`: -2.53%; `O=C(c1cnccn1)N1CCc2ncnc(-c3cccnc3)c2CC1`: -16.1%; `Cn1c(=O)[nH]c(=O)n2c(CC(=O)Nc3ccc(Cl)c(Cl)c3)cnc12`: -12.5%. With `Cc1ccc(S(=O)(=O)N2CCN(CCCn3ccnc3)CC2)cc1`, the cytotoxicity at 70.5 h was -1.75%. For the molecule `NCc1ccc(Oc2cccc(Cl)c2Cl)nc1`, the cytotoxicity at 70.5 h amounted to 6.23%.

The values above are taken from ChEMBL document CHEMBL3507680, “University of Dundee, Gates Library screen for HepG2 cell viability”.
